Assay results from patent US11000488B2 (priority 2019, dated 2021).
Like-named read-outs stand apart in the source and are kept apart here.

Columns and labels:
pupil diameter = experiment: pupillometry, trial A; type: in vivo, human; details: after dosing
[1] = drug-related adverse events, safety population, trials A and B
[2] = respiration and other vital signs, trials A and B; details: trial A
cold-induced pain = experiment: cold pressor test (cold-induced pain), trials A and B; type: in vivo, human
[3] = single dose 100 mg racemic tramadol, cited from earlier work
[4] = human, in vivo; cited from earlier work
[5] = trial A (n = 43, males), 0-10 VAS
[6] = trial B (n = 18, females), with paroxetine
[7] = trial B (n = 18, females), with paroxetine, 0-10 VAS
[8] = trial B (n = 42, males), with paroxetine
[9] = trial B (n = 42, males), with paroxetine, 0-10 VAS

COc1cccc(C2(O)CCCCC2CN(C)C)c1 (racemic) [tramadol]
pupil diameter, mean paired reduction [SD] compared to placebo (pupil diameter): −0.7 (0.6) millimeters
Deaths ([1]; trial A): 0 (0) N (%)
Severe AEs ([1]; trial A): 0 (0) N (%)
subjects reporting drug-related AEs ([1]; trial A): 49%
All AEs ([1]; trial A (N = 43)): 20 (49) N (%)
Dizziness ([1]; trial A, all subjects): 5 (12) N (%)
Euphoria ([1]; trial A, all subjects): 0 (0) N (%)
Feel abnormal ([1]; trial A, all subjects): 1 (2) N (%)
Feel hot ([1]; trial A, all subjects): 0 (0) N (%)
Headache ([1]; trial A, all subjects): 7 (17) N (%)
Nausea ([1]; trial A, all subjects): 5 (12) N (%)
Presyncope ([1]; trial A, all subjects): 0 (0) N (%)
Pruritus ([1]; trial A, all subjects): 4 (10) N (%)
Somnolence ([1]; trial A, all subjects): 2 (5) N (%)
Spasticity ([1]; trial A, all subjects): 1 (2) N (%)
Sweating ([1]; trial A, all subjects): 0 (0) N (%)
Vomiting ([1]; trial A, all subjects): 1 (2) N (%)
Dizziness ([1]; trial A, male): 5 (12) N (%)
Euphoria ([1]; trial A, male): 0 (0) N (%)
Feel abnormal ([1]; trial A, male): 1 (2) N (%)
Feel hot ([1]; trial A, male): 0 (0) N (%)
Headache ([1]; trial A, male): 7 (17) N (%)
Nausea ([1]; trial A, male): 5 (12) N (%)
Presyncope ([1]; trial A, male): 0 (0) N (%)
Pruritus ([1]; trial A, male): 4 (10) N (%)
Somnolence ([1]; trial A, male): 2 (5) N (%)
Spasticity ([1]; trial A, male): 1 (2) N (%)
Sweating ([1]; trial A, male): 0 (0) N (%)
Vomiting ([1]; trial A, male): 1 (2) N (%)
Deaths ([1]; trial B): 0 (0) N (%)
Severe AEs ([1]; trial B): 0 (0) N (%)
All AEs ([1]; trial B (N = 60), with paroxetine): 30 (50) N (%)
Dizziness ([1]; trial B, all subjects): 8 (13) N (%)
Euphoria ([1]; trial B, all subjects): 1 (2) N (%)
Feel abnormal ([1]; trial B, all subjects): 2 (3) N (%)
Feel hot ([1]; trial B, all subjects): 0 (0) N (%)
Headache ([1]; trial B, all subjects): 6 (10) N (%)
Nausea ([1]; trial B, all subjects): 8 (13) N (%)
Presyncope ([1]; trial B, all subjects): 1 (2) N (%)
Pruritus ([1]; trial B, all subjects): 1 (2) N (%)
Somnolence ([1]; trial B, all subjects): 4 (7) N (%)
Spasticity ([1]; trial B, all subjects): 3 (5) N (%)
Sweating ([1]; trial B, all subjects): 1 (2) N (%)
Vomiting ([1]; trial B, all subjects): 2 (3) N (%)
Dizziness ([1]; trial B, female): 4 (22) N (%)
Euphoria ([1]; trial B, female): 0 (0) N (%)
Feel abnormal ([1]; trial B, female): 0 (0) N (%)
Feel hot ([1]; trial B, female): 0 (0) N (%)
Headache ([1]; trial B, female): 6 (33) N (%)
Nausea ([1]; trial B, female): 2 (11) N (%)
Presyncope ([1]; trial B, female): 0 (0) N (%)
Pruritus ([1]; trial B, female): 1 (6) N (%)
Somnolence ([1]; trial B, female): 2 (11) N (%)
Spasticity ([1]; trial B, female): 0 (0) N (%)
Sweating ([1]; trial B, female): 0 (0) N (%)
Vomiting ([1]; trial B, female): 0 (0) N (%)
Dizziness ([1]; trial B, male): 4 (10) N (%)
Euphoria ([1]; trial B, male): 1 (2) N (%)
Feel abnormal ([1]; trial B, male): 2 (5) N (%)
Feel hot ([1]; trial B, male): 0 (0) N (%)
Headache ([1]; trial B, male): 0 (0) N (%)
Nausea ([1]; trial B, male): 6 (14) N (%)
Presyncope ([1]; trial B, male): 1 (2) N (%)
Pruritus ([1]; trial B, male): 0 (0) N (%)
Somnolence ([1]; trial B, male): 2 (5) N (%)
Spasticity ([1]; trial B, male): 3 (7) N (%)
Sweating ([1]; trial B, male): 1 (2) N (%)
Vomiting ([1]; trial B, male): 2 (5) N (%)
headache, tramadol AE profile compared to the desmetramadol AE profile ([1]; trial B, same subjects): −40%
nausea, tramadol AE profile compared to the desmetramadol AE profile ([1]; trial B, same subjects): −50%
presyncope, tramadol AE profile compared to the desmetramadol AE profile ([1]; trial B, same subjects): −83%
pruritus, tramadol AE profile compared to the desmetramadol AE profile ([1]; trial B, same subjects): −75%
somnolence, tramadol AE profile compared to the desmetramadol AE profile ([1]; trial B, same subjects): −60%
vomiting, tramadol AE profile compared to the desmetramadol AE profile ([1]; trial B, same subjects): −78%
subjects reporting drug-related AEs ([1]; trial B, with paroxetine): 50%
pre-dose versus post-dose effect on respiratory rate compared to placebo or each other [2]: no discernable pre-dose versus post-dose effect
average duration of tolerance to pain (cold-induced pain; trial A): 62 s
Time to first pain, mean difference versus placebo (cold-induced pain; trial A (n = 43, males)): 2.1 s
Time to withdrawal, mean difference versus placebo (cold-induced pain; trial A (n = 43, males)): 12.4 (4.4) seconds
Pain intensity at 30 seconds, MPD versus placebo (cold-induced pain; [5]): −0.46
Pain intensity at first perception, MPD versus placebo (cold-induced pain; [5]): −0.21
Time to withdrawal, mean difference versus placebo (cold-induced pain; trial A (n = 43, males), listed as TRAMADOL): 12.4 s
Average (SD) subject-reported pain scores at 30 seconds (cold-induced pain; trial A, 0-10 VAS): 6.0 (1.7)
Time to first pain, MPD versus placebo (cold-induced pain; [6]): 2.6 s
Time to withdrawal, MPD versus placebo (cold-induced pain; [6]): 7.5 s
Pain intensity at 30 seconds, MPD versus placebo (cold-induced pain; [7]): 0.03
Pain intensity at first perception, MPD versus placebo (cold-induced pain; [7]): 0.01
Time to first pain, MPD versus placebo (cold-induced pain; [8]): 1.5 s
Time to withdrawal, MPD versus placebo (cold-induced pain; [8]): 6.9 (1.6) seconds
Pain intensity at 30 seconds, MPD versus placebo (cold-induced pain; [9]): failed to statistically differentiate from placebo
Pain intensity at first perception, MPD versus placebo (cold-induced pain; [9]): −0.08
Pain intensity at 30 seconds, MPD versus placebo (cold-induced pain; trial B (n = 42, males), with paroxetine, 0-10 VAS, listed as TRAMADOL): −0.25
Time to withdrawal, MPD versus placebo (cold-induced pain; trial B (n = 42, males), with paroxetine, listed as TRAMADOL): 6.9 s
subjects experiencing nausea ([3]; EM group (11 EMs)): 9%
subjects experiencing nausea ([3]; UM group (11 UMs)): ~50%
lethal dose [4]: > 5 grams
